Columns and labels:
Assay in all cases: relative viability (nuclei count vs DMSO), 5 days (fraction); higher = more cells survive
A549 = test system: A549
How it was run: (§1)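 Dosing by pin tool came one day after lung cancer cell lines were seeded in 1536-well plates, using either one drug or a fixed anchor-drug dose plus five library-drug doses (not always all listed) in √10 steps. After 5 days, nuclei were counted on 4× images. Relative viability is treated-well nuclei count divided by vehicle-well nuclei count, and values are medians of duplicate plates.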

Calu-6 = test system: Calu-6
How it was run: as §1

EBC-1 = test system: EBC-1
How it was run: as §1

IA-LM = test system: IA-LM
How it was run: as §1

NCI-H1299 = test system: NCI-H1299
How it was run: as §1

NCI-H1703 = test system: NCI-H1703
How it was run: as §1

NCI-H2023 = test system: NCI-H2023
How it was run: as §1

NCI-H2170 = test system: NCI-H2170
How it was run: as §1

NCI-H520 = test system: NCI-H520
How it was run: as §1

NCI-H727 = test system: NCI-H727
How it was run: as §1

NCI-H1648 = test system: NCI-H1648
How it was run: as §1

CCNC(=O)c1noc(-c2cc(C(C)C)c(O)cc2O)c1-c1ccc(CN2CCOCC2)cc1 [Luminespib] + Cc1nc(NC(=O)N2CCC[C@H]2C(N)=O)sc1-c1ccnc(C(C)(C)C(F)(F)F)c1 [Alpelisib] (partner 2 µM)
relative viability (A549; first compound 0.002 µM): 0.804
relative viability (A549; first compound 0.006325 µM): 0.71
relative viability (A549; first compound 0.02 µM): 0.255
relative viability (A549; first compound 0.06325 µM): 0.0392
relative viability (A549; first compound 0.2 µM): 0.036
relative viability (Calu-6; first compound 0.002 µM): 0.975
relative viability (Calu-6; first compound 0.006325 µM): 0.949
relative viability (Calu-6; first compound 0.02 µM): 0.783
relative viability (Calu-6; first compound 0.06325 µM): 0.131
relative viability (Calu-6; first compound 0.2 µM): 0.12
relative viability (EBC-1; first compound 0.002 µM): 0.825
relative viability (EBC-1; first compound 0.006325 µM): 0.741
relative viability (EBC-1; first compound 0.02 µM): 0.228
relative viability (EBC-1; first compound 0.06325 µM): 0.146
relative viability (EBC-1; first compound 0.2 µM): 0.131
relative viability (IA-LM; first compound 0.002 µM): 0.752
relative viability (IA-LM; first compound 0.006325 µM): 0.788
relative viability (IA-LM; first compound 0.02 µM): 0.268
relative viability (IA-LM; first compound 0.06325 µM): 0.0487
relative viability (IA-LM; first compound 0.2 µM): 0.05
relative viability (NCI-H1299; first compound 0.002 µM): 1
relative viability (NCI-H1299; first compound 0.006325 µM): 1
relative viability (NCI-H1299; first compound 0.02 µM): 1.15
relative viability (NCI-H1299; first compound 0.06325 µM): 0.961
relative viability (NCI-H1299; first compound 0.2 µM): 0.483
relative viability (NCI-H1703; first compound 0.002 µM): 0.378
relative viability (NCI-H1703; first compound 0.006325 µM): 0.367
relative viability (NCI-H1703; first compound 0.02 µM): 0.186
relative viability (NCI-H1703; first compound 0.06325 µM): 0.133
relative viability (NCI-H1703; first compound 0.2 µM): 0.116
relative viability (NCI-H2023; first compound 0.002 µM): 0.59
relative viability (NCI-H2023; first compound 0.006325 µM): 0.609
relative viability (NCI-H2023; first compound 0.02 µM): 0.529
relative viability (NCI-H2023; first compound 0.06325 µM): 0.255
relative viability (NCI-H2023; first compound 0.2 µM): 0.0672
relative viability (NCI-H2170; first compound 0.002 µM): 0.763
relative viability (NCI-H2170; first compound 0.006325 µM): 0.79
relative viability (NCI-H2170; first compound 0.02 µM): 0.526
relative viability (NCI-H2170; first compound 0.06325 µM): 0.504
relative viability (NCI-H2170; first compound 0.2 µM): 0.172
relative viability (NCI-H520; first compound 0.002 µM): 0.916
relative viability (NCI-H520; first compound 0.006325 µM): 0.875
relative viability (NCI-H520; first compound 0.02 µM): 1.01
relative viability (NCI-H520; first compound 0.06325 µM): 0.131
relative viability (NCI-H520; first compound 0.2 µM): 0.15
relative viability (NCI-H727; first compound 0.002 µM): 0.553
relative viability (NCI-H727; first compound 0.006325 µM): 0.584
relative viability (NCI-H727; first compound 0.02 µM): 0.504
relative viability (NCI-H727; first compound 0.06325 µM): 0.234
relative viability (NCI-H727; first compound 0.2 µM): 0.228

CCNC(=O)c1noc(-c2cc(C(C)C)c(O)cc2O)c1-c1ccc(CN2CCOCC2)cc1 [Luminespib] + CC1(C)CCC(c2ccc(Cl)cc2)=C(CN2CCN(c3ccc(C(=O)NS(=O)(=O)c4ccc(N[C@H](CCN5CCOCC5)CSc5ccccc5)c(S(=O)(=O)C(F)(F)F)c4)cc3)CC2)C1 [Navitoclax] (partner 0.5 µM)
relative viability (A549; first compound 0.002 µM): 1.22
relative viability (A549; first compound 0.006325 µM): 1.15
relative viability (A549; first compound 0.02 µM): 1.11
relative viability (A549; first compound 0.06325 µM): 0.0452
relative viability (A549; first compound 0.2 µM): 0.0433
relative viability (Calu-6; first compound 0.002 µM): 0.836
relative viability (Calu-6; first compound 0.006325 µM): 0.772
relative viability (Calu-6; first compound 0.02 µM): 1.08
relative viability (Calu-6; first compound 0.06325 µM): 0.116
relative viability (Calu-6; first compound 0.2 µM): 0.107
relative viability (EBC-1; first compound 0.002 µM): 0.489
relative viability (EBC-1; first compound 0.006325 µM): 0.488
relative viability (EBC-1; first compound 0.02 µM): 0.241
relative viability (EBC-1; first compound 0.06325 µM): 0.142
relative viability (EBC-1; first compound 0.2 µM): 0.133
relative viability (IA-LM; first compound 0.002 µM): 0.752
relative viability (IA-LM; first compound 0.006325 µM): 0.792
relative viability (IA-LM; first compound 0.02 µM): 0.549
relative viability (IA-LM; first compound 0.06325 µM): 0.061
relative viability (IA-LM; first compound 0.2 µM): 0.058
relative viability (NCI-H1299; first compound 0.002 µM): 1.03
relative viability (NCI-H1299; first compound 0.006325 µM): 1.01
relative viability (NCI-H1299; first compound 0.02 µM): 1.07
relative viability (NCI-H1299; first compound 0.06325 µM): 0.975
relative viability (NCI-H1299; first compound 0.2 µM): 0.295
relative viability (NCI-H1703; first compound 0.002 µM): 1.34
relative viability (NCI-H1703; first compound 0.006325 µM): 0.925
relative viability (NCI-H1703; first compound 0.02 µM): 0.371
relative viability (NCI-H1703; first compound 0.06325 µM): 0.147
relative viability (NCI-H1703; first compound 0.2 µM): 0.138
relative viability (NCI-H2023; first compound 0.002 µM): 0.969
relative viability (NCI-H2023; first compound 0.006325 µM): 1.11
relative viability (NCI-H2023; first compound 0.02 µM): 0.99
relative viability (NCI-H2023; first compound 0.06325 µM): 0.0933
relative viability (NCI-H2023; first compound 0.2 µM): 0.0995
relative viability (NCI-H2170; first compound 0.002 µM): 0.646
relative viability (NCI-H2170; first compound 0.006325 µM): 0.596
relative viability (NCI-H2170; first compound 0.02 µM): 0.293
relative viability (NCI-H2170; first compound 0.06325 µM): 0.581
relative viability (NCI-H2170; first compound 0.2 µM): 0.451
relative viability (NCI-H520; first compound 0.002 µM): 1.01
relative viability (NCI-H520; first compound 0.006325 µM): 1
relative viability (NCI-H520; first compound 0.02 µM): 1.1
relative viability (NCI-H520; first compound 0.06325 µM): 0.177
relative viability (NCI-H520; first compound 0.2 µM): 0.167
relative viability (NCI-H727; first compound 0.002 µM): 0.43
relative viability (NCI-H727; first compound 0.006325 µM): 0.449
relative viability (NCI-H727; first compound 0.02 µM): 0.408
relative viability (NCI-H727; first compound 0.06325 µM): 0.218
relative viability (NCI-H727; first compound 0.2 µM): 0.27

CN1CCN(CCOc2cc(OC3CCOCC3)c3c(Nc4c(Cl)ccc5c4OCO5)ncnc3c2)CC1 [Saracatinib] + Nc1nc2[nH]cc(CCc3ccc(C(=O)N[C@@H](CCC(=O)O)C(=O)O)cc3)c2c(=O)[nH]1 [Pemetrexed] (partner 0.2 µM)
relative viability (NCI-H1648; first compound 0.02 µM): 0.721
relative viability (NCI-H1648; first compound 0.2 µM): 0.766
relative viability (NCI-H1648; first compound 0.6325 µM): 1.08
relative viability (NCI-H1648; first compound 2 µM): 0.415
relative viability (NCI-H2023; first compound 0.02 µM): 0.229
relative viability (NCI-H2023; first compound 0.2 µM): 0.189
relative viability (NCI-H2023; first compound 0.6325 µM): 0.202
relative viability (NCI-H2023; first compound 2 µM): 0.191
relative viability (NCI-H2170; first compound 0.02 µM): 0.25
relative viability (NCI-H2170; first compound 0.2 µM): 0.253
relative viability (NCI-H2170; first compound 0.6325 µM): 0.277
relative viability (NCI-H2170; first compound 2 µM): 0.202
relative viability (NCI-H520; first compound 0.02 µM): 0.625
relative viability (NCI-H520; first compound 0.2 µM): 0.508
relative viability (NCI-H520; first compound 0.6325 µM): 0.474
relative viability (NCI-H520; first compound 2 µM): 0.337
